Data on 21 compounds can be found in patent US9365541B2, “Compounds for use in the treatment of parasitic diseases” (IRBM—SCIENCE PARK S.P.A., priority 2012, dated 2016).

For orientation: EC50 means the concentration at which the effect is half-maximal. A higher EC50 goes with a need for much substance. The term IC50 denotes the midpoint of a concentration-inhibition curve.

Molecules are shown by their SMILES.

Assay [1] deals with Plasmodium falciparum 3D7. Briefly: P. falciparum growth inhibition assay (Pf-LDH). The format is cell-based. As to conditions: Plasmodium falciparum, Erythrocyte; P. falciparum 3D7 infected erythrocytes, 72 h incubation, PfLDH readout. The protocol: Basic culture of Plasmodium falciparum 3D7 parasites (Malaria Research and Reference Reagent Resource Center (MR4), MR4 Number: MRA-102).
Starting with a culture with a parasitemia of about 10% (and 5% hematocrit), 0.5 ml of the culture is placed in a fresh 100 mm petri dish with 0.95 ml of fresh erythrocytes (50% hematocrit) and 8.55 ml of culture medium, giving a new starting parasitemia of 0.5%. The petri dish is then incubated at 37° C. in a humidified gas-tight plastic box flushed with a gas mixture consisting of 93% N2, 4% CO2, and 3% O2. The culture medium is changed daily. The supernatant is removed by gently tipping the dish without disturbing the settled cells and aspirating the medium with a Pasteur pipette connected to a vacuum pump. A small amount of the concentrated cells is taken to prepare a blood smear for determination of the parasitemia. Normally, the cultures are split twice a week. If the parasites are growing very slowly then fresh erythrocytes are added to the culture no later than after 7 days. The cultures are then split 1:2 if the parasitemia is lower than 0.5%. To avoid the necessity of daily medium change on weekends, a culture with a 2.5% hematocrit and 0.1-0.2% parasitemia is set up and can be left for 3 days without medium change.
Standard medium consists of RPMI 1640, supplemented with 25 mM HEPES, 24 mM NaHCO3, 0.36 mM hypoxanthine, 100 μg/ml Neomycin, 5 g/1 Albumax® II, and washed human red blood cells (rbcs) A+.
P. falciparum Growth Inhibition Assay (Pf-LDH)
Compounds of the invention were assessed for in vitro antimalarial activity against a cloroquine sensitive (3D7) strain of the malaria parasite Plasmodium falciparum, using a lactate dehydrogenase (PfLDH) assay.
EC50 Determination by Pf-LDH Assay
384 plates (where compounds to be tested are dispensed) with 25 μl of parasite inoculum (parasitemia: 0.25%, hematocrit: 2%) are incubated at 37° C. in an atmosphere of 4% CO2, 3% O2, 93% N2. After 72 h of incubation, plates are frozen at −70° C. overnight and thawed at room temperature for at least 4 h. To evaluate PfLDH activity, 70 μl of freshly made reaction mix (143 mM sodium L-lactate, 143 μM 3-acetyl pyridine adenine dinucleotide (APAD), 178.75 μM Nitro Blue tetrazolium chloride (NBT), 286 μg/ml diaphorase (2.83 U/ml), 0.7% Tween 20, 100 mM Tris-HCl pH 8.0) is dispensed using a Multidrop Combi dispenser. Plates are shaken to ensure mixing and absorbance at 650 nm is monitored in a plate reader after 10 min of incubation at room temperature.
Negative controls (0% Effect) are produced by addition of DMSO to the proper wells.
Positive controls (100% Effect) are produced by addition of 150 nM Artemisinin (Sigma-Aldrich, 361593)
After result normalization using positive and negative controls, compound potency is determined by fitting the following equation: % inh=Ymin+(Ymax−Ymin)/(1+(X/EC50)^slope)) Where: • Ymin=minimum percentage effect • Ymax=maximum percentage effect • EC50=the concentration of the compound at which 50% effect is reached • Slope=the slope of the curve calculated at the EC50 Histone Hyperacetylation and Immunodetection of Altered Histone Modifications Assay

For assay [2], the target named is T1, human HDAC1 (Homo sapiens, UniProt Q13547).
T1 construct: made in house; host or cells: HeLa (ATCC CCL-2), mammalian cells
Put plainly: Homo sapiens HDAC1 inhibition assay (Fluor-de-Lys, enzymatic). In kind it is biochemical. As to conditions: human HDAC enzymatic assay; read-out: hHDAC IC50. On the procedure: Biology Homo sapiens HDAC1 Inhibition Assay Overview:
The aim of the assay is to evaluate the inhibition of the deacetylase activity of human HDAC1. To such goal an acetylated substrate is added to the enzyme mix; the resulting enzymatic product is converted to a fluorescent molecule by the addition the enzyme trypsine (developer solution). Fluorescence intensity is inversely proportional to the rate of inhibition of the enzyme (as indicated in the material section below).
Reagents of the HDAC Fluorescent Activity Assay are purchased from Enzo Life Sciences (http://www.enzolifesciences.com/BML-AK500/fluor-de-lys-hdac-fluorometric-activity-assay-kit/) and feature the Fluor-de-Lys™ Substrate/Developer System.
c) Trichostatin A (TSA) Stock
TSA (Sigma-Aldrich, T8552) is provided as a 10 mM stock solution in 100% dimethylsulfoxide (DMSO).
Diluted Substrate Solution
The final concentration in the assay is 20 μM.
Diluted Developer Solution
2 μM [final] TSA to this solution increases its ability to stop the reaction.
The HDAC1 enzyme is diluted in assay buffer prior to each use from a fresh aliquot of enzyme.
The final concentration in the assay is 1-2 nM.
Test compounds should be prepared in 100% DMSO and transferred to the assay by a nano volume dispenser to reach the appropriate concentration and the appropriate DMSO concentration (0.25%) in the reaction.

T1 sequence (Q13547 whole entry): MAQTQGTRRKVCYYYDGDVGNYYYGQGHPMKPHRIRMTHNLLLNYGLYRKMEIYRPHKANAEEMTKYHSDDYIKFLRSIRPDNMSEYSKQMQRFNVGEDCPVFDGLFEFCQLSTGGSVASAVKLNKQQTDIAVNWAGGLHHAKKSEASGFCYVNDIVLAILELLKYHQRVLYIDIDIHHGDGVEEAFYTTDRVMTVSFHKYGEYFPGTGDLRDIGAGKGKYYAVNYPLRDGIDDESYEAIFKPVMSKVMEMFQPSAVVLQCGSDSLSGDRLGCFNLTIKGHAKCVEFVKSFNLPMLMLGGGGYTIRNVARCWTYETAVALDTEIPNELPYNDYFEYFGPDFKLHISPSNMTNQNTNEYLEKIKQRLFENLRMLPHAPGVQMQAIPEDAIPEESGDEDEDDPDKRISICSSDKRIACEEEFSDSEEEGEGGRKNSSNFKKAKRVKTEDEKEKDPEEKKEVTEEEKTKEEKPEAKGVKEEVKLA

Compound `CNC(=O)CCCCC[C@H](NC(=O)c1cncs1)c1ncc(-c2ccc3c(cnn3C)c2)[nH]1` [Entry 191, (S)-N-(1-(5-(1-methyl-1H-indazol-5-yl)-1H-imidazol-2-yl)-7-(methylamino)-7-oxoheptyl)thiazole-5-carboxamide] showed an EC50 in assay [1] of under 1 µM. Further, the half-inhibitory concentration (IC50) in assay [2] was 1 to 5 µM.
Compound `CNC(=O)CCCCC[C@H](NC(=O)c1cncs1)c1ncc(-c2ccc(-c3ccccc3)nc2OC)[nH]1` [Entry 192, (S)-N-(1-(5-(2-methoxy-6-phenylpyridin-3-yl)-1H-imidazol-2-yl)-7-(methylamino)-7-oxoheptyl)thiazole-5-carboxamide] displayed an EC50 in assay [1] of 1 to 5 µM. Besides, the concentration for half-maximal inhibition (IC50) in assay [2] was over 5 µM.
In the case of `CNC(=O)CCCCC[C@H](NC(=O)Cn1ccc(C)n1)c1ncc(-c2ccc3ccncc3c2)[nH]1` [Entry 119], the EC50 in assay [1] was in the range of 1 to 5 µM. In assay [2], the half-inhibitory concentration (IC50) is 1 to 5 µM.
As for `CNC(=O)CCCCC[C@H](NC(=O)OCc1ccccc1)c1ncc(-c2ccc(-c3cc[nH]n3)cc2)[nH]1` [Entry 37, (S)-benzyl(1-(5-(4-(1H-pyrazol-3-yl)phenyl)-1H-imidazol-2-yl)-7-(methylamino)-7-oxoheptyl)carbamate], in assay [1], the 50% effective concentration (EC50) was 1 to 5 µM. Besides, in assay [2], the IC50 was under 1 µM.
`CNC(=O)CCCCC[C@H](NC(=O)Cc1n[nH]c(=O)[nH]1)c1ncc(-c2ccc3ccccc3c2)[nH]1` [Entry 115] came in with a concentration for a half-maximal effect (EC50) in assay [1] of 1 to 5 µM. In assay [2], the IC50 lay in the range of 1 to 5 µM.
As for `CNC(=O)CCCCC[C@H](NC(=O)c1cncs1)c1ncc(-c2cccc3ccoc23)[nH]1` [Entry 147, (S)-N-(1-(5-(benzofuran-7-yl)-1H-imidazol-2-yl)-7-(methylamino)-7-oxoheptyl)thiazole-5-carboxamide], the concentration giving a half-maximal response (EC50) in assay [1] was 1 to 5 µM. In addition, the IC50 in assay [2] is 1 to 5 µM.
Compound `CNC(=O)CCCCC[C@H](NC(=O)c1nc[nH]n1)c1ncc(-c2cc3ccccc3nc2OC)[nH]1` [Entry 102, (S)-N-(1-(5-(2-methoxyquinolin-3-yl)-1H-imidazol-2-yl)-7-(methylamino)-7-oxoheptyl)-1H-1,2,4-triazole-3-carboxamide] gave an EC50 in assay [1] of over 5 µM. Besides, the IC50 in assay [2] was over 5 µM.
In the case of `CNC(=O)CCCCC[C@H](NC(=O)c1cncs1)c1ncc(-c2cc3ccccc3s2)[nH]1` [Entry 51, (S)-N-(1-(5-(benzo[b]thiophen-2-yl)-1H-imidazol-2-yl)-7-(methylamino)-7-oxoheptyl)thiazole-5-carboxamide], the EC50 in assay [1] lay in the range of 1 to 5 µM. Besides, in assay [2], the IC50 lay within 1 to 5 µM.
In assay [1], `CNC(=O)CCCCC[C@H](NC(=O)C12CCN(CC1)CC2)c1ncc(-c2ccc3ncccc3c2)[nH]1` [Entry 152] gave a concentration giving a half-maximal response (EC50) of 1 to 5 µM. For the same compound, the 50% inhibitory concentration (IC50) in assay [2] is under 1 µM.
On to `Cn1ccc(-c2ccc(-c3cnc([C@H](CCCCCC(N)=O)NC(=O)c4cncs4)[nH]3)cc2)n1` [Entry 218, (S)-N-(7-amino-1-(5-(4-(1-methyl-1H-pyrazol-3-yl)phenyl)-1H-imidazol-2-yl)-7-oxoheptyl)thiazole-5-carboxamide], for which the half-maximal effective concentration (EC50) in assay [1] is under 1 µM. The IC50 in assay [2] is under 1 µM.
Compound `CNC(=O)CCCCC[C@H](NC(=O)c1cnn(C(C)C)c1)c1ncc(-c2ccc(-c3ccn(C)n3)cc2)o1` [Entry 223, (S)-1-isopropyl-N-(1-(5-(4-(1-methyl-1H-pyrazol-3-yl)phenyl)oxazol-2-yl)-7-(methylamino)-7-oxoheptyl)-1H-pyrazole-4-carboxamide] came in with a concentration for a half-maximal effect (EC50) in assay [1] of 1 to 5 µM. Also, the half-inhibitory concentration (IC50) in assay [2] was over 5 µM.
For `CNC(=O)CCCCC[C@H](NC(=O)C(C)n1cccn1)c1ncc(-c2ccc3ccccc3c2)[nH]1` (stereo partly drawn) [Entry 85, (7S)-7-(2-(1H-pyrazol-1-yl)propanamido)-N-methyl-7-(5-(naphthalen-2-yl)-1H-imidazol-2-yl)heptanamide], the EC50 in assay [1] lay within 1 to 5 µM. In addition, the IC50 in assay [2] is 1 to 5 µM.
Turning to `CNC(=O)CCCCC[C@H](NC(=O)c1cncs1)c1ncc(-c2ccc3ccccc3c2)[nH]1` [Entry 95, (S)-N-(7-(methylamino)-1-(5-(naphthalen-2-yl)-1H-imidazol-2-yl)-7-oxo-heptyl)thiazole-5-carboxamide], the 50% effective concentration (EC50) in assay [1] was under 1 µM. The concentration for half-maximal inhibition (IC50) in assay [2] was under 1 µM.
Compound `CNC(=O)CCCCC[C@H](NC(=O)Cn1c(=O)oc2ccccc21)c1ncc(-c2ccc3ccccc3c2)[nH]1` [Entry 74] displayed an EC50 in assay [1] of 1 to 5 µM. Further, the half-maximal inhibitory concentration (IC50) in assay [2] was under 1 µM.
The compound `CNC(=O)CCCCC[C@H](NC(=O)Cc1csc2nccn12)c1ncc(-c2ccc(-c3ccn(C)n3)cc2)[nH]1` [Entry 146, (S)-7-(2-(imidazo[2,1-b]thiazol-3-yl)acetamido)-N-methyl-7-(5-(4-(1-methyl-1H-pyrazol-3-yl)phenyl)-1H-imidazol-2-yl)heptanamide] displayed a half-maximal effective concentration (EC50) in assay [1] of 1 to 5 µM. The IC50 in assay [2] lay within 1 to 5 µM.
Compound `CNC(=O)CCCCC[C@H](NC(=O)CN1CCCC1)c1ncc(-c2ccc3ccncc3c2)[nH]1` [Entry 66] had an EC50 in assay [1] of over 5 µM. Moreover, the IC50 in assay [2] fell in the range of 1 to 5 µM.
`CNC(=O)CCCCC[C@H](NC(=O)c1cccc(N2CCOCC2)c1)c1ncc(-c2ccc3ccccc3c2)[nH]1` [Entry 64, (S)-N-(7-(methylamino)-1-(5-(naphthalen-2-yl)-1H-imidazol-2-yl)-7-oxoheptyl)-3-morpholino-benzamide] had a half-maximal effective concentration (EC50) in assay [1] of 1 to 5 µM. The concentration for half-maximal inhibition (IC50) in assay [2] was over 5 µM.
For `CNC(=O)CCCCC[C@H](NC(=O)c1cncs1)c1ncc(-c2ccc3cc(OC)ccc3c2)[nH]1` [Entry 194, (S)-N-(1-(5-(6-methoxynaphthalen-2-yl)-1H-imidazol-2-yl)-7-(methylamino)-7-oxoheptyl)thiazole-5-carboxamide] the same measures were under 1 µM and under 1 µM.
In turn, `CNC(=O)CCCCC[C@H](NC(=O)c1cnsc1)c1ncc(-c2ccc(-n3cccn3)cc2)[nH]1` [Entry 12, (S)-N-(1-(5-(4-(1H-pyrazol-1-yl)phenyl)-1H-imidazol-2-yl)-7-(methylamino)-7-oxoheptyl)isothiazole-4-carboxamide] came in with an EC50 in assay [1] of 1 to 5 µM. The IC50 in assay [2] was in the range of 1 to 5 µM.
As for `CNC(=O)CCCCC[C@H](NC(=O)c1cnc(C)s1)c1ncc(-c2ccc(-c3ccn(C)n3)cc2)[nH]1` [Entry 17, (S)-2-methyl-N-(1-(5-(4-(1-methyl-1H-pyrazol-3-yl)phenyl)-1H-imidazol-2-yl)-7-(methylamino)-7-oxoheptyl)thiazole-5-carboxamide], in assay [1], the EC50 was under 1 µM. In addition, the IC50 in assay [2] was in the range of 1 to 5 µM.
For `CNC(=O)CCCCC[C@H](NC(=O)C12CCN(CC1)CC2)c1ncc(-c2cc3ccccc3[nH]c2=O)[nH]1` [Entry 204, (S)-N-(7-(methylamino)-7-oxo-1-(5-(2-oxo-1,2-dihydroquinolin-3-yl)-1H-imidazol-2-yl)heptyl)quinuclidine-4-carboxamide], the half-maximal effective concentration (EC50) in assay [1] was over 5 µM. Moreover, the 50% inhibitory concentration (IC50) in assay [2] is 1 to 5 µM.
